Measurements published in US8835484B2, “Naphthocyanines for use as contrast agents” (Alamedics GmbH & Co. KG, priority 2010, dated 2014).

What was measured:
[1] = system: lens capsule; assay: Dye tests on porcine eyes (lens capsule staining); design: key: +++: visually assessed very strong coloration; ++: good coloration; +: satisfactory coloration; −: weak or absent coloration; conditions: incubated, rinsed after one minute
Protocol: For the dye test, in each case 5 mg dye was dissolved in 500 μL ethanol and diluted to 2 mL with BSS Plus solution as the stock solution, and then correspondingly further diluted. As an alternative, one can prepare stock solutions of the dye by dissolving, for example, 5 mg dye in 1 mL distilled water, adding 7 mL BSS solution and then combining with 1 mL NaCl solution having an osmolality of 620 (approximately 2%) in order to restore the original osmolality of the BSS solution (308). This stock solution can be correspondingly further diluted with BSS solution as required. Enucleated porcine eyes were used having a post mortem time period of a few hours. To dye the lens capsule, the cornea was first removed. Thereafter, the iris was resected and the capsular support was severed. The lens with intact lens capsule was removed and placed in a bowl filled with BSS. The lenses were thereafter incubated with the dyes according to the invention at various concentrations and then rinsed after one minute. The dye pattern was photographically documented, whereby the coloration was assessed without additional illumination, and fluorescence was assessed with illumination (Xenon lamp, halogen lamp with typical endoillumination source and fiber optics). The lens capsule is a very good model for dyeing due to the fact that it is a basal membrane, as is the ILM of the retina. Both structures are important target structures in eye surgery.

[2] = Fluorescence quantum yield; format: physicochemical; conditions: CHCl3; Reference: S-13 with Φ=1.00
Text: IR spectra: Perkin Elmer Spectrum BX II, using a diamond anvil cell; UV/Vis spectra: Varian Cary 5000 and Bruins Omega 20; fluorescence spectra: Varian Eclispe; NMR spectroscopy: Varian Vnmrs 600 (600 MHz, 400 MHz, 200 MHz); mass spectrometry: Thermo Finnigan LQT FT.

[3] = Solid cyanine dye stability comparison; format: physicochemical; conditions: storage
Text: Decomposition of the solid dye results in a red coloration of the solid and the solution. Carboxylic acid esters, especially methyl ester, are particularly sensitive in addition to the bromides.

CC1(C)C(=CC=CC2=[N+](CCCCCCCCCC(=O)O)c3ccc4ccccc4c3C2(C)C)N(CCCCCCCCCC(=O)O)c2ccc3ccccc3c21.[Br-] [Dye 3e, 3,3′-Di-(9-carboxynonyl)-1,1,1′,1′-tetramethyl-1H-dibenzo[e]indocarbocyanine bromide]
coloration of lens capsule ([1]; dye concentration 0.0025%): −
coloration of lens capsule ([1]; dye concentration 0.025%): −
coloration of lens capsule ([1]; dye concentration 0.25%): ++
coloration of lens capsule ([1]; dye concentration 0.5%): ++
Fluorescence quantum yield [2]: 0.59

CCOC(=O)CCCCN1C(=CC=CC2=[N+](CCCCC(=O)OCC)c3ccc4ccccc4c3C2(C)C)C(C)(C)c2c1ccc1ccccc21.[Br-] [Dye 3n, 3,3′-Di-(4-ethoxycarbonylbutyl)-1,1,1′,1′-tetramethyl-1H-dibenzo[e]indocarbocyanine bromide]
coloration of lens capsule ([1]; dye concentration 0.0025%): −
coloration of lens capsule ([1]; dye concentration 0.025%): −
coloration of lens capsule ([1]; dye concentration 0.25%): +
coloration of lens capsule ([1]; dye concentration 0.5%): ++
Fluorescence quantum yield [2]: 0.43

CCOC(=O)CCCCCN1C(=CC=CC2=[N+](CCCCCC(=O)OCC)c3ccc4ccccc4c3C2(C)C)C(C)(C)c2c1ccc1ccccc21.[Br-] [Dye 3o, 3,3′-Di-(5-ethoxycarbonylpentyl)-1,1,1′,1′-tetramethyl-1H-dibenzo[e]indocarbocyanine bromide]
coloration of lens capsule ([1]; dye concentration 0.0025%): −
coloration of lens capsule ([1]; dye concentration 0.025%): −
coloration of lens capsule ([1]; dye concentration 0.25%): ++
coloration of lens capsule ([1]; dye concentration 0.5%): ++
Fluorescence quantum yield [2]: 0.36

COC(=O)CCCCCCCCCCN1C(=CC=CC2=[N+](CCCCCCCCCCC(=O)OC)c3ccc4ccccc4c3C2(C)C)C(C)(C)c2c1ccc1ccccc21.[Br-] [Dye 3k, 3,3′-Di-(10-methoxycarbonyldecyl)-1,1,1′,1′-tetramethyl-1H-dibenzo[e]indocarbocyanine bromide]
coloration of lens capsule ([1]; dye concentration 0.0025%): −
coloration of lens capsule ([1]; dye concentration 0.025%): −
coloration of lens capsule ([1]; dye concentration 0.25%): +
coloration of lens capsule ([1]; dye concentration 0.5%): ++
Fluorescence quantum yield [2]: 0.36

3,3′-Di-(5-bromopentyl)-1,1,1′,1′-tetramethyl-1H-dibenzo[e]indocarbocyanine bromide [Dye 3y]
Stability [3]: No decomposition after 4 months
Fluorescence quantum yield [2]: 0.15

CCOC(=O)CCN1C(=CC=CC2=[N+](CCC(=O)OCC)c3ccc4ccccc4c3C2(C)C)C(C)(C)c2c1ccc1ccccc21.[Br-] [Dye 3l, 3,3′-Di-(2-ethoxycarbonylethyl)-1,1,1′,1′-tetramethyl-1H-dibenzo[e]indocarbocyanine bromide]
coloration of lens capsule ([1]; dye concentration 0.0025%): −
coloration of lens capsule ([1]; dye concentration 0.025%): +
coloration of lens capsule ([1]; dye concentration 0.25%): +++
coloration of lens capsule ([1]; dye concentration 0.5%): +++
Fluorescence quantum yield [2]: 0.33

3,3′-Di-(10-bromodecyl)-1,1,1′,1′-tetramethyl-1H-disulfobenzo[e]indocarbocyanine bromide [Dye 6i]
coloration of lens capsule ([1]; dye concentration 0.5%): decomposed
coloration of lens capsule ([1]; dye concentration 1.0): decomposed
Stability [3]: Decomposition after 2 days
Fluorescence quantum yield [2]: 0.13

COC(=O)CCN1C(=CC=CC2=[N+](CCC(=O)OC)c3ccc4ccccc4c3C2(C)C)C(C)(C)c2c1ccc1ccccc21.[Br-] [Dye 3h, 3,3′-Di-(2-methoxycarbonylethyl)-1,1,1′,1′-tetramethyl-1H-dibenzo[e]indocarbocyanine bromide]
coloration of lens capsule ([1]; dye concentration 0.0025%): −
coloration of lens capsule ([1]; dye concentration 0.025%): +
coloration of lens capsule ([1]; dye concentration 0.25%): ++
coloration of lens capsule ([1]; dye concentration 0.5%): +++
Fluorescence quantum yield [2]: 0.24

CC1(C)C(=CC=CC2=[N+](CCCCCS(=O)(=O)O)c3ccc4ccccc4c3C2(C)C)N(CCCCCS(=O)(=O)O)c2ccc3ccccc3c21.[Br-] [Dye 3u, 3,3′-Di-(5-sulfopentyl)-1,1,1′,1′-tetramethyl-1H-dibenzo[e]indocarbocyanine bromide]
coloration of lens capsule ([1]; dye concentration 0.5%): −
coloration of lens capsule ([1]; dye concentration 1.0): +
Stability [3]: No decomposition after 4 months
Fluorescence quantum yield [2]: 0.13

COC(=O)CCCCCCCCCN1C(=CC=CC2=[N+](CCCCCCCCCC(=O)OC)c3ccc4ccccc4c3C2(C)C)C(C)(C)c2c1ccc1ccccc21.[Br-] [Dye 3j, 3,3′-Di-(9-methoxycarbonylnonyl)-1,1,1′,1′-tetramethyl-1H-dibenzo[e]indocarbocyanine bromide]
coloration of lens capsule ([1]; dye concentration 0.0025%): −
coloration of lens capsule ([1]; dye concentration 0.025%): −
coloration of lens capsule ([1]; dye concentration 0.25%): +
coloration of lens capsule ([1]; dye concentration 0.5%): ++
Fluorescence quantum yield [2]: 0.47

CC1(C)C(/C=C/C=C2\N(CCCCS(=O)(=O)[O-])c3ccc4c(S(=O)(=O)O)cccc4c3C2(C)C)=[N+](CCCCS(=O)(=O)O)c2ccc3c(S(=O)(=O)O)cccc3c21 [Dye 6a, 3,3′-Di-(4-sulfobutyl)-1,1,1′,1′-tetramethyl-1H-disulfobenzo[e]indocarbocyanine bromide]
coloration of lens capsule ([1]; dye concentration 0.5%): +++
coloration of lens capsule ([1]; dye concentration 1.0): +++
Stability [3]: No decomposition after 4 months
Fluorescence quantum yield [2]: 0.33

CC1(C)C(=CC=CC2=[N+](CCCCCCCCCCCC(=O)O)c3ccc4ccccc4c3C2(C)C)N(CCCCCCCCCCCC(=O)O)c2ccc3ccccc3c21.[Br-] [Dye 3g, 3,3′-Di-(11-carboxyundecyl)-1,1,1′,1′-tetramethyl-1H-dibenzo[e]indocarbocyanine bromide]
coloration of lens capsule ([1]; dye concentration 0.0025%): −
coloration of lens capsule ([1]; dye concentration 0.025%): −
coloration of lens capsule ([1]; dye concentration 0.25%): ++
coloration of lens capsule ([1]; dye concentration 0.5%): ++
Fluorescence quantum yield [2]: 0.35

CC1(C)C(=CC=CC2=[N+](CCCCCCCC(=O)O)c3ccc4ccccc4c3C2(C)C)N(CCCCCCCC(=O)O)c2ccc3ccccc3c21.[Br-] [Dye 3d, 3,3′-Di-(7-carboxyheptyl)-1,1,1′,1′-tetramethyl-1H-dibenzo[e]indocarbocyanine bromide]
coloration of lens capsule ([1]; dye concentration 0.0025%): −
coloration of lens capsule ([1]; dye concentration 0.025%): −
coloration of lens capsule ([1]; dye concentration 0.25%): +
coloration of lens capsule ([1]; dye concentration 0.5%): +++
Fluorescence quantum yield [2]: 0.43

CC1(C)C(/C=C/C=C2\N(CCC(=O)O)c3ccc4ccccc4c3C2(C)C)=[N+](CCC(=O)O)c2ccc3ccccc3c21.[Br-] [Dye 3a, 3,3′-Di-(2-carboxyethyl)-1,1,1′,1′-tetramethyl-1H-dibenzo[e]indocarbocyanine bromide]
coloration of lens capsule ([1]; dye concentration 0.0025%): −
coloration of lens capsule ([1]; dye concentration 0.025%): +
coloration of lens capsule ([1]; dye concentration 0.25%): ++
coloration of lens capsule ([1]; dye concentration 0.5%): ++
Fluorescence quantum yield [2]: 0.35

3,3′-Di-(5-bromodecyl)-1,1,1′,1′-tetramethyl-1H-dibenzo[e]indocarbocyanine bromide [Dye 3x]
Stability [3]: No decomposition after 4 months
Fluorescence quantum yield [2]: 0.10

CC1(C)C(=CC=CC2=[N+](CCCCCCCCCCC(=O)O)c3ccc4ccccc4c3C2(C)C)N(CCCCCCCCCCC(=O)O)c2ccc3ccccc3c21.[Br-] [Dye 3f, 3,3′-Di-(10-carboxydecyl)-1,1,1′,1′-tetramethyl-1H-dibenzo[e]indocarbocyanine bromide]
Fluorescence quantum yield [2]: 0.33

COC(=O)CCCCN1C(=CC=CC2=[N+](CCCCC(=O)OC)c3ccc4ccccc4c3C2(C)C)C(C)(C)c2c1ccc1ccccc21.[Br-] [Dye 3i, 3,3′-Di-(4-methoxycarbonylbutyl)-1,1,1′,1′-tetramethyl-1H-dibenzo[e]indocarbocyanine bromide]
coloration of lens capsule ([1]; dye concentration 0.0025%): −
coloration of lens capsule ([1]; dye concentration 0.025%): +
coloration of lens capsule ([1]; dye concentration 0.25%): +
coloration of lens capsule ([1]; dye concentration 0.5%): ++
Fluorescence quantum yield [2]: 0.40

CCOC(=O)CCCCCCN1C(=CC=CC2=[N+](CCCCCCC(=O)OCC)c3ccc4ccccc4c3C2(C)C)C(C)(C)c2c1ccc1ccccc21.[Br-] [Dye 3p, 3,3′-Di-(6-ethoxycarbonylhexyl)-1,1,1′,1′-tetramethyl-1H-dibenzo[e]indocarbocyanine bromide]
Fluorescence quantum yield [2]: 0.35

CC1(C)C(=CC=CC2=[N+](CCCCC(=O)O)c3ccc4ccccc4c3C2(C)C)N(CCCCC(=O)O)c2ccc3ccccc3c21.[Br-] [Dye 3b, 3,3′-Di-(4-carboxybutyl)-1,1,1′,1′-tetramethyl-1H-dibenzo[e]indocarbocyanine bromide]
Fluorescence quantum yield [2]: 0.49

CCOC(=O)CCCN1C(=CC=CC2=[N+](CCCC(=O)OCC)c3ccc4ccccc4c3C2(C)C)C(C)(C)c2c1ccc1ccccc21.[Br-] [Dye 3m, 3,3′-Di-(3-ethoxycarbonylpropyl)-1,1,1′,1′-tetramethyl-1H-dibenzo[e]indocarbocyanine bromide]
coloration of lens capsule ([1]; dye concentration 0.0025%): −
coloration of lens capsule ([1]; dye concentration 0.025%): −
coloration of lens capsule ([1]; dye concentration 0.25%): ++
coloration of lens capsule ([1]; dye concentration 0.5%): +++
Fluorescence quantum yield [2]: 0.61

CC1(C)C(=CC=CC2=[N+](CCCCCC(=O)O)c3ccc4ccccc4c3C2(C)C)N(CCCCCC(=O)O)c2ccc3ccccc3c21.[Br-] [Dye 3c, 3,3′-Di-(5-carboxypentyl)-1,1,1′,1′-tetramethyl-1H-dibenzo[e]indocarbocyanine bromide]
coloration of lens capsule ([1]; dye concentration 0.0025%): −
coloration of lens capsule ([1]; dye concentration 0.025%): −
coloration of lens capsule ([1]; dye concentration 0.25%): +++
coloration of lens capsule ([1]; dye concentration 0.5%): +++
Fluorescence quantum yield [2]: 0.50
